Results: patent US10772891B2, “Pyrazolo pyridine derivatives as NADPH oxidase inhibitors” (GENKYOTEX SUISSE SA, priority 2008, dated 2020)

biological target: T1, NOX (Homo sapiens, UniProt P04839); assay: Amplex Red measurement of extracellular hydrogen peroxide (NOX activity) in DMSO-differentiated HL60 cells; type: cell-based; details: not given
T1 construct: NOX activity as measured by Amplex Red using DMSO-differentiated HL60 cells; endogenous in cells; host or cells: HL-60 cells differentiated to the neutrophil phenotype with Me2SO
T1 sequence (P04839 2-570 limits assumed): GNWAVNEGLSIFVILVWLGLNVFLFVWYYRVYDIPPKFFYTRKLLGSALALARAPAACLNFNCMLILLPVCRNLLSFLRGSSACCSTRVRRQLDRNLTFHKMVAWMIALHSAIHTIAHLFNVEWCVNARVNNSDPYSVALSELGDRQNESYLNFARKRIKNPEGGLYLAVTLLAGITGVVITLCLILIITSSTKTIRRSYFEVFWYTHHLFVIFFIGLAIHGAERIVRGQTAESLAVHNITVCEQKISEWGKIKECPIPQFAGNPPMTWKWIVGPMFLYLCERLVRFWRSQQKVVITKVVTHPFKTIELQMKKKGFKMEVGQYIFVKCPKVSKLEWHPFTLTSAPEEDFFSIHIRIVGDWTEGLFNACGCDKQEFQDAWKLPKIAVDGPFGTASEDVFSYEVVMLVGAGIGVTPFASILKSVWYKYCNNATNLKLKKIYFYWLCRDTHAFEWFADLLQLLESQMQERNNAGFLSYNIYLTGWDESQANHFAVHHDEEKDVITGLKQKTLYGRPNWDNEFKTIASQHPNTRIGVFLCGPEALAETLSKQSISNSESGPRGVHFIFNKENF
T1 sequence (P13498 1-195 partner): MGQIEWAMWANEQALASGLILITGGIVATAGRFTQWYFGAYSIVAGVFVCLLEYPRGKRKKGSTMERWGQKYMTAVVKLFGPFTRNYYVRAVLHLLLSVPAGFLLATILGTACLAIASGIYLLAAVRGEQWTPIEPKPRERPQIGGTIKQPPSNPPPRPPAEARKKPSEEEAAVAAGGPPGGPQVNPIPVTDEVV
Description: Human acute myeloid leukemia cell line HL-60 was cultured in RPMI 1640 (Invitrogen) supplemented with 10% heat-inactivated calf serum, 2 mM glutamine, 100 U/mL penicillin (Sigma), and 100 μg streptomycin (Sigma) at 37° C. under a humidified atmosphere of 5% CO2. HL60 differentiation to the neutrophil phenotype was triggered by adding Me2SO (final concentration 1.25% v/v for 6 days) to the culture medium.
Extracellular hydrogen peroxide was measured using Amplex UltraRed (Molecular Probes). Cells were trypsinized (1× Trypsin-EDTA), collected by centrifugation, and resuspended in HBSS supplemented with 1% glucose. Cells were seeded into black 96-well plates at a density of 50′000 cells in 200 μl testing buffer (HBSS 1% glucose containing 0.005 U/mL horseradish peroxidase (Roche) and 50 μM Amplex Red in the presence or absence of compounds according to the invention. As a control, DPI was included at a final concentration of 10 μM The plates were placed in the fluorescent Optima Fluorescent plate reader and kept at 37° C. during 20 min. Fluorescence was measured for 15 min with excitation and emission wavelengths of 544 nm and 590 nm respectively. NOX activities were expressed as % of the activity in control cells. Residual activity of DPI-treated cells was usually <10%. […]
The Table 2 below summarizes the IC50 of NOX activity as measured by Amplex Red using DMSO-differentiated HL60 cells as described above: […]

| IC50 [µM] | SMILES |
| --- | --- |
| < 5 | Cc1c2c(=O)n(-c3ccccc3Cl)[nH]c2cc(=O)n1Cc1ccc(CN2CCN(C)CC2)cc1 [Compound 2, 2-(2-chlorophenyl)-4-methyl-5-{4-[(4-methylpiperazin-1-yl)methyl]benzyl}-1H-pyrazolo[4,3-c]pyridine-3,6(2H,5H)-dione] |
| < 5 | Cc1c2c(=O)n(-c3ccccc3Cl)[nH]c2cc(=O)n1CC(c1ccccc1)N1CCOCC1 (centres unmarked) [Compound 3, 2-(2-chlorophenyl)-4-methyl-5-(2-morpholin-4-yl-2-phenylethyl)-1H-pyrazolo[4,3-c]pyridine-3,6(2H,5H)-dione] |
| < 5 | CCOCCCn1c(C)c2c(=O)n(-c3nc(-c4ccccc4)cs3)[nH]c2cc1=O [Compound 7, 5-(3-ethoxypropyl)-4-methyl-2-(4-phenyl-1,3-thiazol-2-yl)-1H-pyrazolo[4,3-c]pyridine-3,6(2H,5H)-dione] |
| < 5 | Cc1c2c(=O)n(-c3ccccc3Cl)[nH]c2cc(=O)n1C [Compound 8, 2-(2-chlorophenyl)-4,5-dimethyl-1H-pyrazolo[4,3-c]pyridine-3,6(2H,5H)-dione] |
| < 5 | Cc1c2c(=O)n(-c3nc(-c4ccccc4)cs3)[nH]c2cc(=O)n1Cc1cccc(Oc2ccccc2)c1 [Compound 10, 4-methyl-5-(3-phenoxybenzyl)-2-(4-phenyl-1,3-thiazol-2-yl)-1H-pyrazolo[4,3-c]pyridine-3,6(2H,5H)-dione] |
| < 5 | Cc1c2c(=O)n(-c3ccccc3Cl)[nH]c2cc(=O)n1NC(=O)COc1ccc(F)cc1 [Compound 13, N-[2-(2-chlorophenyl)-4-methyl-3,6-dioxo-1,2,3,6-tetra hydro-5H-pyrazolo[4,3-c]pyridin-5-yl]-2-(4-fluorophenoxy)acetamide] |
| < 5 | Cc1c2c(=O)n(-c3ccccc3F)[nH]c2cc(=O)n1Cc1cccc(N2CCOCC2)n1 [Compound 20, 2-(2-fluorophenyl)-4-methyl-5-[(6-morpholin-4-ylpyridin-2-yl)methyl]-1H-pyrazolo[4,3-c]pyridine-3,6(2H,5H)-dione] |

Continued, compound first:

| SMILES | IC50 [µM] |
| --- | --- |
| Cc1c2c(=O)n(-c3ccccc3Cl)[nH]c2cc(=O)n1Cc1ccccc1N1CCOCC1 [Compound 1, 2-(2-chlorophenyl)-4-methyl-5-(2-morpholin-4-ylbenzyl)-1H-pyrazolo[4,3-c]pyridine-3,6(2H,5H)-dione] | < 5 |
| COc1cccc(CCn2c(C)c3c(=O)n(-c4ccccc4Cl)[nH]c3cc2=O)c1 [Compound 4, 2-(2-chlorophenyl)-5-[2-(3-methoxyphenyl)ethyl]-4-methyl-1H-pyrazolo[4,3-c]pyridine-3,6(2H,5H)-dione] | < 5 |
| Cc1c2c(=O)n(-c3cccc(Cl)c3)[nH]c2cc(=O)n1CCCC(=O)N1CCN(C)CC1 [Compound 28, 2-(3-chlorophenyl)-4-methyl-5-[4-(4-methylpiperazin-1-yl)-4-oxobutyl]-1H-pyrazolo[4,3-c]pyridine-3,6(2H,5H)-dione] | < 5 |
| Cc1c2c(=O)n(-c3ccccc3F)[nH]c2cc(=O)n1CC(=O)NCc1ccccn1 [Compound 30, 2-[2-(2-fluorophenyl)-4-methyl-3,6-dioxo-1,2,3,6-tetra hydro-5H-pyrazolo[4,3-c]pyridin-5-yl]-N-(pyridin-2-ylmethyl)acetamide] | < 5 |

test system: NOX; assay: Nitroblue tetrazolium (NBT) superoxide test in cells; type: cell-based, human; details: DPI 10 μM, % of the activity in control cells, 'usually'
Description: Intracellular and extracellular superoxide was measured by a colorimetric technique using a quantitative nitroblue tetrazolium (NBT) test. SOD-inhibitable conversion of NBT to formazan, a fine blue precipitate, in the presence of superoxide anion was measured using Fluostar Optima spectrometer (BMG labtech). Following incubation with appropriate stimuli, cells were trypsinized (1× Trypsin-EDTA), collected by centrifugation, and washed with PBS to remove medium. 5×10^5 cells were plated on 48-well plates and incubated in Hank's balanced salt solution containing 0.5 mg/mL NBT with or without 800 U/mL SOD in the presence or absence of compounds according to the invention. As a control, DPI was included at a final concentration of 10 μM. After 2.5 h, cells were fixed and washed with methanol to remove non reduced NBT. The reduced formazan was then dissolved in 230 μl of 2M potassium hydroxide and in 280 μl of dimethylsulfoxide. The absorption was measured at 630 nm. For calculation, the absorbance at 630 nm was normalized for each individual well. The mean of the four blank values was subtracted from each corrected value for each time point. NOX activities were expressed as % of the activity in control cells. Residual activity of DPI-treated cells was usually <10%.

| SMILES | Residual activity of DPI-treated cells [%] |
| --- | --- |
| c1ccc([I+]c2ccccc2)cc1 [DPI, Diphenyl-iodonium] | < 10 |

test system: NOX; assay: Chemiluminescence (Luminol) ROS measurement in cells; type: cell-based, human; details: % of the activity in control cells, 'usually'
Description: ROS was measured using the chemiluminescent probe luminol. Cells were cultured and plated as for Amplex Red except that the Amplex Red agent was replaced by 10 μg/mL luminol (Sigma 09235). Light emission was recorded continuously at 37° C. for 60 minutes using the luminescence function of the FluoStar Optima fluorescent plate reader. The mean of the four blank values was subtracted from each corrected value for each time point. NOX activities were expressed as % of the activity in control cells. Residual activity of DPI-treated cells was usually <10%.

| SMILES | Residual activity of DPI-treated cells [%] |
| --- | --- |
| c1ccc([I+]c2ccccc2)cc1 [DPI, Diphenyl-iodonium] | < 10 |

test system: NOX; assay: H2DCF-DA fluorescence in TGF-β stimulated HUVEC; type: cell-based, human; details: % of the activity in control cells, 'usually'
Description: HUVEC are cultured in endothelial basal medium supplemented with hydrocortisone (1 μg/mL, CalBioChem), bovine brain extract (12 μg/mL), gentamicin (50 μg/mL, CalBioChem), amphotericin B (50 ng/mL, CalBioChem EGF (10 ng/mL, and 10% FCS until the fourth passage. When the fifth passage was started, cells were cultured with a lower concentration of FCS (2%) in the absence of EGF, if not indicated otherwise. All experiments were done with cells of the fifth passage. The cells were incubated with OxLDL (oxidized low-density lipoprotein) or its buffer as control for 24 h, before detection of 02 formation.
HUVEC were plated on coverslips and made quiescent overnight in 0.5% BSA before stimulation with TGF-β. Cells were loaded for 10 minutes with 5 μM CM-H2DCFDA in phenol-red-free medium in the dark and then treated with TGF-β (R&D Systems) in the presence or absence of compounds according to the invention. Cells were then visualized by immunofluorescence microscopy after fixation and staining of the nuclei with DAPI or examined live using confocal microscopy. DCF fluorescence was visualized at an excitation wavelength of 488 nm and emission at 515 to 540 nm. […] For calculation, the absorbance at […] was normalized to absorbance at […] for each individual well. […] NOX activities were expressed as % of the activity in control cells. […]

| SMILES | Residual activity of DPI-treated cells [%] |
| --- | --- |
| c1ccc([I+]c2ccccc2)cc1 [DPI, Diphenyl-iodonium] | < 10 |
